# Results published in article PMC11775380, “Discovery of Novel Nav1.7-Selective Inhibitors with the 1H-Indole-3-Propionamide Scaffold for Effective Pain Relief” (Research, 2025).
# Biological target: T1, human Nav1.7 (hNav1.7) (Homo sapiens, UniProt Q15858)
# T1 construct: expressed in transfected cells; host or cells: HEK293T
# Assay: Whole-cell patch-clamp inhibition of Nav1.7 currents in transfected HEK293T cells
# Assay type: cell-based
# Conditions: 10 μM compound; inhibition rate of Nav1.7
# Experimental: Human embryonic kidney (HEK) 293T (ATCC CRL-3216) and ND7/23 cells (National Collection of Authenticated Cell Cultures SCSP-5026) were cultured under standard conditions (5% CO2, 37 °C) in Dulbecco’s modified Eagle’s medium (DMEM) containing 10% fetal bovine serum and 1% penicillin-streptomycin solution(all from Gibco, Thermo Fisher Scientific, Waltham, MA, USA). When the cells reached 70% to 90% confluence, human Nav1.2 (hNav1.2), human Nav1.3 (hNav1.3), human Nav1.4 (hNav1.4), human Nav1.5 (hNav1.5), and mouse Nav1.6 (mNav1.6) channel plasmids were cotransfected with enhanced green fluorescent protein (eGFP) into HEK293T cells. Additionally, plasmids expressing β1 and β2 subunits tagged with eGFP were cotransfected with the human Nav1.7 (hNav1.7) channel into HEK293T cells. Human Nav1.8 (hNav1.8) was transiently transfected into ND7/23 cells, along with eGFP, using Lipofectamine 2000 (Invitrogen), adhering strictly to the manufacturer’s protocol. For manual patch-clamp experiments, the cells were plated onto glass coverslips and used within 20 to 48 h of transfection.
# Whole-cell patch-clamp recordings were conducted at 25 ± 2 °C, utilizing an EPC 10USB patch-clamp amplifier (HEKA Elektronik, Lambrecht, Germany). Pipettes, with access resistance between 2.0 and 3.0 MΩ, were pulled from borosilicate glass capillary tubes using a 2-step vertical microelectrode puller (PC-10, Narishige Group, Tokyo, Japan). Voltage-clamp recordings were obtained with PatchMaster software v2 × 73 (HEKA Elektronik) 5 min after establishing whole-cell configuration, sampled at 20 kHz, and filtered at 5 kHz. To minimize voltage errors, 80% series resistance compensation was applied. Pipettes were filled with 140 mM CsF, 10 mM NaCl, 1 mM EGTA, and 10 mM HEPES (pH=7.4, adjusted with CsOH). The external solution contained 140 mM NaCl, 2 mM CaCl2, 1 mM MgCl2, 5 mM KCl, 10 mM HEPES, and 10 mM glucose (pH=7.4, adjusted with NaOH). IC50 values were determined in HEK293T or ND7/23 cell lines by voltage clamping at −80 mV, followed by stepping to the V1/2 of inactivation for 8 s to facilitate compound binding.
# T1 sequence (Q15858 whole entry): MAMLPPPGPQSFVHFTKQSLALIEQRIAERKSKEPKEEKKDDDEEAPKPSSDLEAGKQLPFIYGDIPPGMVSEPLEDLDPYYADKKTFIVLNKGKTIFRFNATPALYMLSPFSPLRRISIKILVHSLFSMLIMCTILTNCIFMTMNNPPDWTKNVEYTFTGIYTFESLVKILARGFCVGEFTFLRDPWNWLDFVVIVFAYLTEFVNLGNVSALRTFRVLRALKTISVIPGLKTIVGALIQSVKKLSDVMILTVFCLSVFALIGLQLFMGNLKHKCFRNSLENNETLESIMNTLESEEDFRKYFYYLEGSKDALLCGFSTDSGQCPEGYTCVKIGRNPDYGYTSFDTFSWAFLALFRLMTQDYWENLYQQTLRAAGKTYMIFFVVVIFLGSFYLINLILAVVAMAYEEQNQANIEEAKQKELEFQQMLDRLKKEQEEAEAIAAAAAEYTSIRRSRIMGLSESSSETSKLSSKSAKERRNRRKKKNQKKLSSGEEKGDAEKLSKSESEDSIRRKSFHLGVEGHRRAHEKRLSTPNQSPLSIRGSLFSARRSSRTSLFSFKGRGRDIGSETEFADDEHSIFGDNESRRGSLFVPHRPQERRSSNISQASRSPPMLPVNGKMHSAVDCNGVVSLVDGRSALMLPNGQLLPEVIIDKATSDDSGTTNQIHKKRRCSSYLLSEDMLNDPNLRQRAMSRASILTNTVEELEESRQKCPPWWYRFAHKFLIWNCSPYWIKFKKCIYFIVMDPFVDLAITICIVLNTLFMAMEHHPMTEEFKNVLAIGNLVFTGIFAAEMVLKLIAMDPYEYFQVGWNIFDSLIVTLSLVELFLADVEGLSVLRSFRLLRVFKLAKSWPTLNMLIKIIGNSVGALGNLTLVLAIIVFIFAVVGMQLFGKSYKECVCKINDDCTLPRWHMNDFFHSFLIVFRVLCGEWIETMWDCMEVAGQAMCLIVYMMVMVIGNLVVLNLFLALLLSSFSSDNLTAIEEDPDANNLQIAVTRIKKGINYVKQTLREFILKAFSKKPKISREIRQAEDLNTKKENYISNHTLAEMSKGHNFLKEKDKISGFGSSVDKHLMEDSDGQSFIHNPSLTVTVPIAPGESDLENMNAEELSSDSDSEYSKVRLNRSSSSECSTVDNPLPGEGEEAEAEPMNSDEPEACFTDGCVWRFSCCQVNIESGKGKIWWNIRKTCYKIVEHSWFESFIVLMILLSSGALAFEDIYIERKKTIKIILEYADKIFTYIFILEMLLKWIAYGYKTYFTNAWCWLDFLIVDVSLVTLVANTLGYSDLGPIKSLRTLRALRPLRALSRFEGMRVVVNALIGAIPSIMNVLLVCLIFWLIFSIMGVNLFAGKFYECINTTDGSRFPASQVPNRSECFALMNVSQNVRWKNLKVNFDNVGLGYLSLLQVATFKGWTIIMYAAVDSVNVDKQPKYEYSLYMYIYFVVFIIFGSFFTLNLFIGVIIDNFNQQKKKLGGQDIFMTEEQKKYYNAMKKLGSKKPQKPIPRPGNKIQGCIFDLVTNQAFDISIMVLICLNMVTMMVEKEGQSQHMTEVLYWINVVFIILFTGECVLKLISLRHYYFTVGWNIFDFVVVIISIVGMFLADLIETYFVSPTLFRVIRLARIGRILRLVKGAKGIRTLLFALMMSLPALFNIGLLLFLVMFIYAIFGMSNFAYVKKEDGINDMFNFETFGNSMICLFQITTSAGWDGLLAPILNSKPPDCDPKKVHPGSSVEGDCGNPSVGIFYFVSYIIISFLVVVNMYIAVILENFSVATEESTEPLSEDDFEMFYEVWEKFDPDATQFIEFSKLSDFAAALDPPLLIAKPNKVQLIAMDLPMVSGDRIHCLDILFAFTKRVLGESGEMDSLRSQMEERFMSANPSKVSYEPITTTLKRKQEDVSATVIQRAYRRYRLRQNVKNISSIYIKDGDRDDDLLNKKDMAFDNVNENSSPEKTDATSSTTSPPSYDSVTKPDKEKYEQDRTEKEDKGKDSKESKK
# T1 sequence (Q07699 19-218 partner): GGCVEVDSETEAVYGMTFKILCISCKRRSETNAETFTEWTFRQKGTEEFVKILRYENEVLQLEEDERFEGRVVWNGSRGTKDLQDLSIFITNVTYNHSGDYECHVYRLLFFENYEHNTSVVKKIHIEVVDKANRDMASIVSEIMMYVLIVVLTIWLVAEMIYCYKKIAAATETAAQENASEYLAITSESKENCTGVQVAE
# T1 sequence (O60939 30-215 partner): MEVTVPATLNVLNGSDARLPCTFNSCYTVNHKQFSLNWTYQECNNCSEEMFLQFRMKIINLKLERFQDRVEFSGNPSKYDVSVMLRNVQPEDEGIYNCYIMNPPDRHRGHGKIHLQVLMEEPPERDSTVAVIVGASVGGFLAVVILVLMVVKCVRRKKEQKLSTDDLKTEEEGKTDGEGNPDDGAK
row,Inhibitory activity (10 μM),Compound
1,19.13% ± 16.30%,(C)C(CC(=O)NCCC1=CC=CC=N1)C2=CN(C3=CC=CC=C32)CC4=CC=CC=C4 [B37]

# Same assay, conditions: HEK-293T; 10 μM compound; inhibition rate of Nav1.7; read-out: Inhibitory activity (10 μM)
row,Compound,inhibition at 10 µM [%]
1,"COc1ccc(C(CC(=O)NCCc2ccccn2)c2cn(Cc3ccc(F)cc3)c3ccccc23)cc1 (centres unmarked) [B20, COC1=CC=C(C=C1)C(CC(=O)NCCC2=CC=CC=N2)C3=CN(C4=CC=CC=C43)CC5=CC=C(C=C5)F]",37.5
2,"COc1ccc(S(=O)(=O)Nc2ccc3c(c2)CCCN3C(=O)c2ccccc2)cc1OC [A2, COC1=C(C=C(C=C1)S(=O)(=O)NC2=CC3=C(C=C2)N(CCC3)C(=O)C4=CC=CC=C4)OC]",36.6
3,"O=C(CN(C(=O)c1ccc(Cl)cc1)C1CC1)Nc1nc(-c2ccccc2)cn1-c1ccccc1 [A4, C1CC1N(CC(=O)NC2=NC(=CN2C3=CC=CC=C3)C4=CC=CC=C4)C(=O)C5=CC=C(C=C5)Cl]",76.4
4,"COc1cc(OC)cc(C(CC(=O)NCCc2ccccn2)c2cn(Cc3ccccc3)c3ccccc23)c1 (centres unmarked) [B22, COC1=CC(=CC(=C1)C(CC(=O)NCCC2=CC=CC=N2)C3=CN(C4=CC=CC=C43)CC5=CC=CC=C5)OC]",45
5,"Brc1ccc(-c2nc(-c3ccc(Oc4ccccc4)cc3)c(-c3ccc(Oc4ccccc4)cc3)[nH]2)cc1 [A9, C1=CC=C(C=C1)OC2=CC=C(C=C2)C3=C(N=C(N3)C4=CC=C(C=C4)Br)C5=CC=C(C=C5)OC6=CC=CC=C6]",4.44
6,"CCCCNC(=O)CC(c1cccc(C)c1)c1cn(Cc2ccc(F)cc2)c2ccccc12 (centres unmarked) [B7, CCCCNC(=O)CC(C1=CC=CC(=C1)C)C2=CN(C3=CC=CC=C32)CC4=CC=C(C=C4)F]",1.84
7,"Cc1ccc(Cn2cc(C(CC(=O)NC3CCCCC3)c3ccc(F)cc3)c3ccccc32)cc1 (centres unmarked) [B9, CC1=CC=C(C=C1)CN2C=C(C3=CC=CC=C32)C(CC(=O)NC4CCCCC4)C5=CC=C(C=C5)F]",6.85
8,"O=C1OC(Nc2ccc(S(=O)(=O)Nc3ccccn3)cc2)c2ccccc21 (centres unmarked) [A10, C1=CC=C2C(=C1)C(OC2=O)NC3=CC=C(C=C3)S(=O)(=O)NC4=CC=CC=N4]",2.74
9,"COc1ccc(C(CC(=O)NCCc2ccccn2)c2cn(Cc3ccc(F)cc3)c3ccccc23)cc1OC (centres unmarked) [B17, COC1=C(C=C(C=C1)C(CC(=O)NCCC2=CC=CC=N2)C3=CN(C4=CC=CC=C43)CC5=CC=C(C=C5)F)OC]",34.9
10,"O=C(Nc1ccccc1C(F)(F)F)c1ccc2c(c1)C(=O)N(Cc1cccnc1)C2=O [A14, C1=CC=C(C(=C1)C(F)(F)F)NC(=O)C2=CC3=C(C=C2)C(=O)N(C3=O)CC4=CN=CC=C4]",2.68
11,"O=C(CC(c1ccc(C(F)(F)F)cc1)c1cn(Cc2ccc(F)cc2)c2ccccc12)N1CCCC1 (centres unmarked) [B25, C1CCN(C1)C(=O)CC(C2=CC=C(C=C2)C(F)(F)F)C3=CN(C4=CC=CC=C43)CC5=CC=C(C=C5)F]",23.1
12,"Cn1cc(C(CC(=O)NCCc2ccccn2)c2cccc(C(F)(F)F)c2)c2ccccc21 (centres unmarked) [B14, CN1C=C(C2=CC=CC=C21)C(CC(=O)NCCC3=CC=CC=N3)C4=CC(=CC=C4)C(F)(F)F]",24.8
13,"COCCNC(=O)CC(c1ccc(OCc2ccccc2)c(OC)c1)c1cn(Cc2ccc(F)cc2)c2ccccc12 (centres unmarked) [A5, COCCNC(=O)CC(C1=CC(=C(C=C1)OCC2=CC=CC=C2)OC)C3=CN(C4=CC=CC=C43)CC5=CC=C(C=C5)F]",3.57
14,"O=C(CC(c1ccc(C(F)(F)F)cc1)c1cn(Cc2ccccc2)c2ccccc12)NCCN1CCCC1 (centres unmarked) [B11, C1CCN(C1)CCNC(=O)CC(C2=CC=C(C=C2)C(F)(F)F)C3=CN(C4=CC=CC=C43)CC5=CC=CC=C5]",7.97
15,"NC(=O)CC(c1ccc(C(F)(F)F)cc1)c1cn(Cc2ccc(F)cc2)c2ccccc12 (centres unmarked) [B4, C1=CC=C2C(=C1)C(=CN2CC3=CC=C(C=C3)F)C(CC(=O)N)C4=CC=C(C=C4)C(F)(F)F]",13.4
16,"COc1ccc(Cn2cc(C(CC(=O)NCCc3ccccn3)c3ccc(C)cc3)c3ccccc32)cc1 (centres unmarked) [B3, CC1=CC=C(C=C1)C(CC(=O)NCCC2=CC=CC=N2)C3=CN(C4=CC=CC=C43)CC5=CC=C(C=C5)OC]",14.2
17,"O=C(CC(c1ccc(F)cc1)c1cn(Cc2ccccc2)c2ccccc12)NCc1ccccn1 (centres unmarked) [B2, C1=CC=C(C=C1)CN2C=C(C3=CC=CC=C32)C(CC(=O)NCC4=CC=CC=N4)C5=CC=C(C=C5)F]",11.5
18,"O=C(CC(c1ccc(F)cc1)c1cn(Cc2ccccc2)c2ccccc12)NC1CC1 (centres unmarked) [B8, C1CC1NC(=O)CC(C2=CC=C(C=C2)F)C3=CN(C4=CC=CC=C43)CC5=CC=CC=C5]",13.6
19,"O=C(CC(c1ccc(OCc2ccccc2)cc1)c1cn(Cc2ccc(F)cc2)c2ccccc12)NCCc1ccccn1 (centres unmarked) [B16, C1=CC=C(C=C1)COC2=CC=C(C=C2)C(CC(=O)NCCC3=CC=CC=N3)C4=CN(C5=CC=CC=C54)CC6=CC=C(C=C6)F]",4.16
20,"CC(=O)N1CCc2nc3sc(C(=O)Nc4cccc(C#N)c4)c(N)c3c(C(F)(F)F)c2C1 [A12, CC(=O)N1CCC2=C(C1)C(=C3C(=C(SC3=N2)C(=O)NC4=CC=CC(=C4)C#N)N)C(F)(F)F]",9.32
21,"O=C(CC(c1cccc(Oc2ccc(Cl)cc2)c1)c1cn(Cc2ccc(F)cc2)c2ccccc12)NCCc1ccccn1 (centres unmarked) [B13, C1=CC=C2C(=C1)C(=CN2CC3=CC=C(C=C3)F)C(CC(=O)NCCC4=CC=CC=N4)C5=CC(=CC=C5)OC6=CC=C(C=C6)Cl]",6.28
22,"CCN1CCN(C(=O)CC(c2ccc(C(F)(F)F)cc2)c2cn(Cc3ccc(F)cc3)c3ccccc23)CC1 (centres unmarked) [B21, CCN1CCN(CC1)C(=O)CC(C2=CC=C(C=C2)C(F)(F)F)C3=CN(C4=CC=CC=C43)CC5=CC=C(C=C5)F]",71.4
23,"CS(=O)(=O)c1ccc2nc(NC(=O)Nc3ccc(Cl)c(Cl)c3)sc2c1 [A11, CS(=O)(=O)C1=CC2=C(C=C1)N=C(S2)NC(=O)NC3=CC(=C(C=C3)Cl)Cl]",4.91

# Now from value to compound:
row,inhibition at 10 µM [%],Compound
1,22.9,"O=C(CC(c1ccc(F)cc1)c1cn(Cc2ccc(F)cc2)c2ccccc12)NCCc1ccccn1 (centres unmarked) [B19, C1=CC=C2C(=C1)C(=CN2CC3=CC=C(C=C3)F)C(CC(=O)NCCC4=CC=CC=N4)C5=CC=C(C=C5)F]"
2,15.6,"O=C(CC(c1cccc(C(F)(F)F)c1)c1cn(Cc2ccc(F)cc2)c2ccccc12)NCc1ccncc1 (centres unmarked) [B35, C1=CC=C2C(=C1)C(=CN2CC3=CC=C(C=C3)F)C(CC(=O)NCC4=CC=NC=C4)C5=CC(=CC=C5)C(F)(F)F]"
3,19.8,"O=C(CC(c1cccc(C(F)(F)F)c1)c1cn(Cc2ccc(F)cc2)c2ccccc12)NCCc1ccccn1 (centres unmarked) [B33, C1=CC=C2C(=C1)C(=CN2CC3=CC=C(C=C3)F)C(CC(=O)NCCC4=CC=CC=N4)C5=CC(=CC=C5)C(F)(F)F]"
4,29.2,"O=C(CC(c1cccc(Oc2ccccc2)c1)c1cn(Cc2ccc(F)cc2)c2ccccc12)NCCc1ccccn1 (centres unmarked) [B28, C1=CC=C(C=C1)OC2=CC=CC(=C2)C(CC(=O)NCCC3=CC=CC=N3)C4=CN(C5=CC=CC=C54)CC6=CC=C(C=C6)F]"
5,91.5,Cc1ccc(Cn2cc(C(CC(=O)NCCN(C)C)c3ccc(F)cc3)c3ccccc32)cc1 (centres unmarked) [WN2]
6,17.2,"O=C(CC(c1ccc(C(F)(F)F)cc1)c1cn(Cc2ccccc2)c2ccccc12)NCc1ccncc1 (centres unmarked) [B36, C1=CC=C(C=C1)CN2C=C(C3=CC=CC=C32)C(CC(=O)NCC4=CC=NC=C4)C5=CC=C(C=C5)C(F)(F)F]"
7,8.62,"COc1ccc(Cn2cc(C(CC(=O)NCCc3ccccn3)c3cccc(Cl)c3)c3ccccc32)cc1 (centres unmarked) [B30, COC1=CC=C(C=C1)CN2C=C(C3=CC=CC=C32)C(CC(=O)NCCC4=CC=CC=N4)C5=CC(=CC=C5)Cl]"
8,73.2,"O=C(CC(c1ccc(C(F)(F)F)cc1)c1cn(Cc2ccc(F)cc2)c2ccccc12)NCCc1ccccn1 (centres unmarked) [WN1, C1=CC=C2C(=C1)C(=CN2CC3=CC=C(C=C3)F)C(CC(=O)NCCC4=CC=CC=N4)C5=CC=C(C=C5)C(F)(F)F]"
9,16.7,"O=C(C1CCCN1C(=O)c1csc(Nc2ccc(F)cc2)n1)N1CCOCC1 (centres unmarked) [B39, C1CC(N(C1)C(=O)C2=CSC(=N2)NC3=CC=C(C=C3)F)C(=O)N4CCOCC4]"
10,18.2,"O=C(CC(c1ccc(C(F)(F)F)cc1)c1cn(Cc2ccc(F)cc2)c2ccccc12)NCc1ccncc1 (centres unmarked) [B23, C1=CC=C2C(=C1)C(=CN2CC3=CC=C(C=C3)F)C(CC(=O)NCC4=CC=NC=C4)C5=CC=C(C=C5)C(F)(F)F]"
11,16,"O=C(CC(c1cccc(Cl)c1)c1cn(Cc2ccc(F)cc2)c2ccccc12)NCCc1ccccn1 (centres unmarked) [B27, C1=CC=C2C(=C1)C(=CN2CC3=CC=C(C=C3)F)C(CC(=O)NCCC4=CC=CC=N4)C5=CC(=CC=C5)Cl]"

# Same assay, conditions: −80 mV holding, step to V1/2 of inactivation for 8 s; HEK293T
row,IC50 [nM],Compound
1,730 ± 120,Cc1ccc(Cn2cc(C(CC(=O)NCCN(C)C)c3ccc(F)cc3)c3ccccc32)cc1 (centres unmarked) [WN2]
2,113 ± 36.9,Cc1ccc(Cn2cc([C@@H](CC(=O)NCCN(C)C)c3ccc(F)cc3)c3ccccc32)cc1 [WN2-S]
3,3960 ± 140,"O=C(CC(c1ccc(C(F)(F)F)cc1)c1cn(Cc2ccc(F)cc2)c2ccccc12)NCCc1ccccn1 (centres unmarked) [WN1, C1=CC=C2C(=C1)C(=CN2CC3=CC=C(C=C3)F)C(CC(=O)NCCC4=CC=CC=N4)C5=CC=C(C=C5)C(F)(F)F]"
